PMC9143880, “Improving Antimicrobial Activity and Physico-Chemical Properties by Isosteric Replacement of 2-Aminothiazole with 2-Aminooxazole” (Pharmaceuticals, 2022)
Converted amounts (≈) assume the structure as drawn. Where two headings read alike, the source gives them in different places.

Experiments:
[1] = tested on: Staphylococcus epidermidis CCM 4418 (ATCC 12228); experiment: Antibacterial microdilution broth (EUCAST); format: cell-based; conditions: Staphylococcus epidermidis; 24h incubation; read-out: MIC SE
[2] = tested on: Lichtheimia corymbifera CCM 8077; experiment: Antifungal microdilution broth (EUCAST); conditions: Lichtheimia corymbifera, CCM8077, 24 h, read-out: MIC LC
[3] = tested on: Candida parapsilosis CCM 8260 (ATCC 22019); experiment: Antifungal microdilution broth (EUCAST); conditions: Lodderomyces parapsilosis, 24 h, read-out: MIC CP
[4] = tested on: Candida albicans CCM 8320 (ATCC 24433); experiment: Antifungal microdilution broth (EUCAST); conditions: Candida albicans, 24 h, read-out: MIC CA
[5] = tested on: Candida krusei CCM 8271 (ATCC 6258); experiment: Antifungal microdilution broth (EUCAST); conditions: Pichia kudriavzevii, 24 h, read-out: MIC CK
[6] = tested on: M. smegmatis DSM 43465 (ATCC 607); experiment: Antimycobacterial MIC, microdilution broth / resazurin; format: cell-based; conditions: Mycolicibacterium smegmatis, read-out: MIC M. smegmatis
[7] = tested on: Enterococcus faecalis CCM 4224 (ATCC 29212); experiment: Antibacterial microdilution broth (EUCAST); format: cell-based; conditions: Enterococcus faecalis; 24h incubation; read-out: MIC EF
[8] = tested on: Staphylococcus aureus subsp. aureus (MRSA) CCM 4750 (ATCC 43300); experiment: Antibacterial microdilution broth (EUCAST); format: cell-based; conditions: Staphylococcus aureus; 24h incubation; read-out: MIC MRSA
[9] = tested on: Staphylococcus aureus subsp. aureus CCM 4223 (ATCC 29213); experiment: Antibacterial microdilution broth (EUCAST); format: cell-based; conditions: Staphylococcus aureus; 24h incubation; read-out: MIC SA
[10] = RP-UHPLC lipophilicity parameter log k’w; format: physicochemical; conditions: for log k’w: RP-UHPLC, acetonitrile/water, log k extrapolated to 0% acetonitrile; for logkw: experimental lipophilicity parameter
Description: Lipophilicity and water solubility of the drug candidates are important parameters as they are often directly related to their ADME properties in the organism. Lipophilicity is usually expressed as the logarithm of the partition coefficient in n-octanol/water (log P). Due to its laborious determination, especially in the HTS screening, other experimental methods such as RP-HPLC log k’w or purely computational approaches such as Clog P were proposed and have been established as reasonable estimators of true lipophilicity. To investigate the changes in lipophilicity upon introduction of oxazole in the title compounds, we determined the log k’w of all derivatives and compared respective values among the pairs.
The log k of the synthesized compounds was measured using the same instrument (single measurement per concentration), software, and column as was used in the purity evaluation. Working solutions were diluted as described above for purity determination. The log k parameter was calculated after the UHPLC measurements using isocratic mode with mobile phase acetonitrile (B)/water (A) in a set of concentrations of 40, 45, 50% and 20, 30, 40% B for subtype I and subtype II, respectively.

[11] = tested on: Pseudomonas aeruginosa CCM 3955 (ATCC 27853); experiment: Antibacterial microdilution broth (EUCAST); format: cell-based; conditions: Pseudomonas aeruginosa; 72h incubation; read-out: MIC PA
[12] = tested on: Aspergillus fumigatus ATCC 204305; experiment: Antifungal microdilution broth (EUCAST); conditions: Aspergillus fumigatus, ATCC204305, 24 h, read-out: MIC AF
[13] = tested on: Mycobacterium tuberculosis H37Ra ITM-M006710 (ATCC 9431); experiment: Antimycobacterial MIC, microdilution broth / Alamar Blue (resazurin); format: cell-based; conditions: Mycobacterium tuberculosis, 120 h, Middlebrook 7H9, resazurin after 120 h; read-out: Mtb H37Ra MIC
[14] = tested on: Acinetobacter baumannii DSM 30007 (ATCC 19606); experiment: Antibacterial microdilution broth (EUCAST); format: cell-based; conditions: Acinetobacter baumannii; 24h incubation; read-out: MIC AB
[15] = tested on: M. avium DSM 44156 (ATCC 25291); experiment: Antimycobacterial MIC, microdilution broth / resazurin; format: cell-based, Mycobacterium avium; conditions: for MIC: Mycobacterium avium, read-out: MIC M. avium
[16] = tested on: Candida tropicalis CCM 8264 (ATCC 750); experiment: Antifungal microdilution broth (EUCAST); conditions: Candida tropicalis, 24 h, read-out: MIC CT
[17] = tested on: M. kansasii DSM 44162 (ATCC 12478); experiment: Antimycobacterial MIC, microdilution broth / resazurin; format: cell-based; conditions: Mycobacterium kansasii, read-out: MIC M. kansasii
[18] = tested on: Escherichia coli CCM 3954 (ATCC 25922); experiment: Antibacterial microdilution broth (EUCAST); format: cell-based; conditions: Escherichia coli; 24h incubation; read-out: MIC EC
[19] = tested on: M. aurum DSM 43999 (ATCC 23366); experiment: Antimycobacterial MIC, microdilution broth / resazurin; format: cell-based; conditions: Mycolicibacterium aurum; resazurin after 72 h; read-out: MIC M. aurum
[20] = tested on: Aspergillus flavus CCM 8363; experiment: Antifungal microdilution broth (EUCAST); conditions: Aspergillus flavus, CCM8363, 24 h, read-out: MIC AFla
[21] = tested on: Trichophyton interdigitale CCM 8377 (ATCC 9533); experiment: Antifungal microdilution broth (EUCAST); conditions: Trichophyton interdigitale, 72 h, read-out: MIC TI

| SMILES | MIC [1] | MIC [2] | MIC [3] | MIC [4] | MIC [5] | MIC [7] | MIC [8] | MIC [9] | log k’w [10] | logkw [10] | MIC [11] | MIC [12] | MIC [13] | MIC [14] | MIC [16] | melting point | MIC [18] | MIC [19] | MIC [20] | MIC [21] | further results |
| --- | --- | --- | --- | --- | --- | --- | --- | --- | --- | --- | --- | --- | --- | --- | --- | --- | --- | --- | --- | --- | --- |
| O=C(Nc1ncco1)c1cnc(Cl)cn1 [Compound 9b] | > 500 µM | 500 µM (≈ 112 µg/mL) | 500 µM (≈ 112 µg/mL) | 250 µM (≈ 56.2 µg/mL) | 250 µM (≈ 56.2 µg/mL) | > 500 µM | > 500 µM | > 500 µM | 0.958 | 0.958 | > 500 µM | 500 µM (≈ 112 µg/mL) | 31.2 µg/mL (≈ 139 µM) | > 500 µM | > 500 µM | 160 to 164 °C | > 500 µM | 15.6 µg/mL (≈ 69.6 µM) | > 500 µM | 62.5 µM (≈ 14 µg/mL) | MIC ([6]; resazurin after 48 h): 62.5 µg/mL (≈ 278 µM); MIC ([15]; 96 h): 31.2 µg/mL (≈ 139 µM); MIC ([17]; resazurin after 96 h): < 3.91 µg/mL |
| Cc1cc(C(=O)Nc2nc(-c3ccccc3)cs2)cc(Cl)n1 [Compound 16a] | > 500 µM | > 125 µM | > 125 µM | > 125 µM | > 125 µM | > 500 µM | > 500 µM | > 500 µM | 3.314 | 3.314 | > 500 µM | > 125 µM | 7.81 µg/mL (≈ 23.7 µM) | > 500 µM | > 125 µM | 92 to 96 °C | > 500 µM | 15.6 µg/mL (≈ 47.4 µM) | > 125 µM | > 125 µM | MIC ([6]; 48 h): 7.81 µg/mL (≈ 23.7 µM); MIC ([15]; 96 h): 7.81 µg/mL (≈ 23.7 µM); MIC ([17]; resazurin after 96 h): 3.91 µg/mL (≈ 11.9 µM) |
| Cc1cc(C(=O)Nc2nc(-c3ccccc3)co2)cc(Cl)n1 [Compound 16b] | 125 µM (≈ 39.2 µg/mL) | > 125 µM | > 125 µM | > 125 µM | > 125 µM | > 125 µM | 62.5 µM (≈ 19.6 µg/mL) | 62.5 µM (≈ 19.6 µg/mL) | 2.251 | 2.251 | > 125 µM | > 125 µM | 15.6 µg/mL (≈ 49.8 µM) | > 125 µM | > 125 µM | 83 to 86 °C | > 125 µM | 7.81 µg/mL (≈ 24.9 µM) | > 125 µM | 62.5 µM (≈ 19.6 µg/mL) | MIC ([6]; resazurin after 48 h): 31.2 µg/mL (≈ 99.6 µM); MIC ([15]; resazurin after 96 h): 7.81 µg/mL (≈ 24.9 µM); MIC ([17]; 96 h): 15.6 µg/mL (≈ 49.8 µM) |
| O=C(Nc1nc(-c2ccccc2)cs1)c1cnc2ccccc2n1 [Compound 19a] | > 250 µM | > 125 µM | > 125 µM | > 125 µM | > 125 µM | > 250 µM | > 250 µM | > 250 µM | 3.583 | 3.583 | > 250 µM | > 125 µM | ≥ 500 µg/mL | > 250 µM | > 125 µM | 217 to 219 °C | > 250 µM | ≥ 500 µg/mL | > 125 µM | > 125 µM | MIC ([6]; resazurin after 48 h): ≥ 500 µg/mL; MIC ([15]; resazurin after 96 h): ≥ 500 µg/mL; MIC ([17]; resazurin after 96 h): ≥ 500 µg/mL |
| O=C(Nc1nc(-c2ccccc2)co1)c1cnc2ccccc2n1 [Compound 19b] | > 500 µM | > 125 µM | > 125 µM | > 125 µM | > 125 µM | > 500 µM | > 500 µM | > 500 µM | 2.465 | 2.465 | > 500 µM | > 125 µM | ≥ 500 µg/mL | > 500 µM | > 125 µM | 181 to 183 °C | > 500 µM | ≥ 500 µg/mL | > 125 µM | > 125 µM | MIC ([6]; resazurin after 48 h): ≥ 500 µg/mL; MIC ([15]; resazurin after 96 h): 7.81 µg/mL (≈ 24.7 µM); MIC M. avium ([15]; resazurin after 96 h): strongly active; MIC ([17]; resazurin after 96 h): 3.91 µg/mL (≈ 12.4 µM) |
